Assay results as given in US7713994B2 (Wyeth LLC, priority 2005, dated 2010).
pIC50: −log10 of the molar value. Read-outs that look alike come from different tables or passages of the source.

Assays:
cyclin E/CDK2 enzyme = molecular target: T1, cyclin E/CDK2 enzyme (Homo sapiens, UniProt P24941); test: CDK2 ELISA kinase assay (phospho-Rb ser 795 detection); assay type: biochemical; settings: In Vitro Enzyme Assays, read-out: CDK2 IC50
T1 construct: made in house; host or cells: Sf9 insect cells, recombinant baculovirus
In short: (§1)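 Sf9-derived cyclin/CDK, 200 μM ATP, immobilized GST-Rb; 30° C/1 h. Detection: phospho-Ser795 Ab, HRP, TMB, OD450.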

MCF-7 = test: Cytotoxicity assay (SRB), MCF-7; assay type: cell-based; settings: Homo sapiens, MCF7, 72 h, MCF-7 cells, SRB, read-out: In Vitro Cellular Activity IC50 MCF-7
In short: (§2)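 Cells grown in RPMI 1640 with 5% FBS were treated with compound for three days (HCT-116, LoVo, MCF-7) or six days (BT474). Viable cell mass was quantified by sulforhodamine B staining of TCA-fixed protein and read at 540 nm.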

cyclin B/CDK1 enzyme = molecular target: T2, cyclin B/CDK1 enzyme (Homo sapiens, UniProt P06493); test: CDK1 ELISA kinase assay (phospho-Rb ser 795 detection); assay type: biochemical; settings: In Vitro Enzyme Assays, read-out: CDK1 IC50
T2 construct: purchased New England BioLabs; host or cells: Sf9 insect cells, recombinant baculovirus
In short: as §1

LoVo = test: Cytotoxicity assay (SRB), LoVo; assay type: cell-based; settings: Homo sapiens, LoVo, 72 h, LoVo cells, SRB, read-out: In Vitro Cellular Activity IC50 LOVO
In short: as §2

cyclin D1/cdk 4 enzyme = molecular target: T3, cyclin D1/cdk 4 enzyme (Homo sapiens, UniProt P11802); test: CDK4 ELISA kinase assay (phospho-Rb ser 795 detection); assay type: biochemical; settings: In Vitro Enzyme Assays, 200 μM ATP, read-out: CDK4 IC50
T3 construct: made in house; host or cells: Sf9 insect cells, recombinant baculovirus
In short: as §1

BT474 = test: Cytotoxicity assay (SRB), BT474; assay type: cell-based
In short: as §2

HCT-116 = test: Cytotoxicity assay (SRB), HCT-116; assay type: cell-based; settings: Homo sapiens, HCT-116, 72 h, HCT116 cells, SRB, read-out: In Vitro Cellular Activity IC50 HCT116
In short: as §2

[1] = Homo sapiens, BT-474, 144 h, BT474 cells, SRB, 6 days; read-out: In Vitro Cellular Activity IC50 BT474
[2] = Homo sapiens, BT-474, 144 h, BT474 cells, 6 days, SRB; read-out: In Vitro Cellular Activity IC50 BT474

T3 sequence (P11802 whole entry, species assumed): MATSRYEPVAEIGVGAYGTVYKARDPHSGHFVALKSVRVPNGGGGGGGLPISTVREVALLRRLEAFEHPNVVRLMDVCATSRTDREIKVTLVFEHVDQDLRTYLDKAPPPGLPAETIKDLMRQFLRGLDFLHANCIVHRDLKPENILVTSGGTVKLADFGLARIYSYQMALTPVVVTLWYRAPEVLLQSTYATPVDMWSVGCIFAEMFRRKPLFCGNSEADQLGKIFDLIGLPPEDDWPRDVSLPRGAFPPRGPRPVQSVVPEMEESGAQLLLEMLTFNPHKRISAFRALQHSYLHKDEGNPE
T3 sequence (P24385 whole entry partner, species assumed): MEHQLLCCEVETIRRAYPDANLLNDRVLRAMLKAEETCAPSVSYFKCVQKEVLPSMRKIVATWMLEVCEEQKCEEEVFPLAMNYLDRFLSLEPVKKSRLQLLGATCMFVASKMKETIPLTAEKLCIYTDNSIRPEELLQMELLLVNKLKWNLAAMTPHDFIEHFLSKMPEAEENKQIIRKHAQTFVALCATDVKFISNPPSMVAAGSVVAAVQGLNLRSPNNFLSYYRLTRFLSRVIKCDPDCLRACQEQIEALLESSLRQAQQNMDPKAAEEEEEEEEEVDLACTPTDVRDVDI
T2 sequence (P06493 whole entry): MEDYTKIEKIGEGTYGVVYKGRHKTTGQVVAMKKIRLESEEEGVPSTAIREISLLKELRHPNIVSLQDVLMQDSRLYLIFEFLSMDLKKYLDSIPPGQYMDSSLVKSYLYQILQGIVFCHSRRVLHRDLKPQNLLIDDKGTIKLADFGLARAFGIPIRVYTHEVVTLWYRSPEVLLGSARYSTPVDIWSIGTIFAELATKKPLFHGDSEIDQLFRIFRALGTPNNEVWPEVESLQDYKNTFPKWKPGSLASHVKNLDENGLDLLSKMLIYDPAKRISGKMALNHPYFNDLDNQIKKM
T2 sequence (P14635 whole entry partner): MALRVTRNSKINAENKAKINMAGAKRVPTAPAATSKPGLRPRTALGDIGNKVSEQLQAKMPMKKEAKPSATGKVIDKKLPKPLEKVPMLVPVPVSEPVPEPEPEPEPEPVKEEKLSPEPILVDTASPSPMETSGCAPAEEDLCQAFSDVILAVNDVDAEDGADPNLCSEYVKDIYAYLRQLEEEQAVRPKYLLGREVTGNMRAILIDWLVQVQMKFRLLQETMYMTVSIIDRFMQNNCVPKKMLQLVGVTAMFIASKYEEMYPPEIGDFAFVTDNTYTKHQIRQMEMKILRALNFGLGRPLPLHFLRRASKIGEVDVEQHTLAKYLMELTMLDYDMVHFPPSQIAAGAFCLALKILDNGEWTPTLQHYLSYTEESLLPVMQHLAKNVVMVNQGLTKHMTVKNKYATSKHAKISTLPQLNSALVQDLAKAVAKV

Row | Compound | pIC50 (cyclin E/CDK2 enzyme) | pIC50 (cyclin B/CDK1 enzyme) | pIC50 (cyclin D1/cdk 4 enzyme) | pIC50 (MCF-7; three days) | pIC50 (LoVo; three days) | pIC50 (BT474; [1]) | pIC50 (HCT-116; three days) | pIC50 (MCF-7; 3 days) | pIC50 (LoVo; 3 days) | pIC50 (BT474; [2]) | pIC50 (HCT-116; 3 days)
1 | CN1CCC(N2CCN(c3ccc(N/C=C4\C(=O)NC(=O)c5ccc(I)cc54)cc3)CC2)CC1 [Example 387, (4Z)-6-Iodo-4-[({4-[4-(1-methylpiperidin-4-yl)piperazin-1-yl]phenyl}amino)methylene]isoquinoline-1,3(2H,4H)-dione] | < 4.30 | < 4.30 | 6.05 | 4.62 | 4.48 | 4.60 | 5.11 | – | – | – | –
2 | CCCN1CCN(c2ccc(N/C=C3\C(=O)NC(=O)c4ccc(I)cc43)cc2)CC1 [Example 388, (4Z)-6-Iodo-4-({[4-(4-propylpiperazin-1-yl)phenyl]amino}methylene)isoquinoline-1,3(2H,4H)-dione] | < 4.30 | < 4.30 | 5.70 | 5.51 | 5.26 | 5.41 | 5.57 | – | – | – | –
3 | O=C1NC(=O)c2ccc(I)cc2/C1=C/Nc1ccc(N2CCN(Cc3ccco3)CC2)cc1 [Example 389, (4Z)-4-[({4-[4-(2-Furylmethyl)piperazin-1-yl]phenyl}amino)methylene]-6-iodoisoquinoline-1,3(2H,4H)-dione] | < 4.30 | < 4.30 | 5.78 | 4.54 | < 4.30 | < 4.30 | 4.64 | – | – | – | –
4 | O=C1NC(=O)c2ccc(I)cc2/C1=C/Nc1ccc(N2CCN(CC3CC3)CC2)cc1 [Example 391, (4Z)-4-[({4-[4-(Cyclopropylmethyl)piperazin-1-yl]phenyl}amino)methylene]-6-iodoisoquinoline-1,3(2H,4H)-dione] | < 4.30 | < 4.30 | 6.30 | – | – | – | – | 5.59 | 5.14 | 5.52 | 5.62
5 | COC1CCN(Cc2ccc(N/C=C3\C(=O)NC(=O)c4ccc(Br)cc43)cc2)CC1 [Example 397, (4Z)-6-Bromo-4-[({4-[(4-methoxypiperidin-1-yl)methyl]phenyl}amino)methylene]isoquinoline-1,3(2H,4H)-dione] | < 4.30 | < 4.30 | 6.72 | – | – | – | – | 5.44 | 5.37 | 5.21 | 5.55
6 | O=C1NC(=O)c2ccc(I)cc2/C1=C/Nc1ccc(N2CCN(CCO)CC2)cc1 [Example 401, (4Z)-4-[({4-[4-(2-Hydroxyethyl)piperazin-1-yl]phenyl}amino)methylene]-6-iodoisoquinoline-1,3(2H,4H)-dione] | < 4.30 | 4.64 | 6.33 | – | – | – | – | 5.29 | 5.17 | 5.35 | 5.59
7 | O=C1NC(=O)c2ccc(I)cc2/C1=C/Nc1ccc(N2CCNCC2)nc1 [Example 410, (4Z)-6-Iodo-4-{[(6-piperazin-1-ylpyridin-3-yl)amino]methylene}isoquinoline-1,3(2H,4H)-dione] | 4.75 | 4.60 | 5.68 | – | – | – | – | 5.29 | 5.17 | 5.64 | 5.55

More lines, main results first:

Row | pIC50 (cyclin E/CDK2 enzyme) | pIC50 (cyclin B/CDK1 enzyme) | pIC50 (cyclin D1/cdk 4 enzyme) | Compound | pIC50 (MCF-7; three days) | pIC50 (LoVo; three days) | pIC50 (BT474; [1]) | pIC50 (HCT-116; three days) | pIC50 (MCF-7; 3 days) | pIC50 (LoVo; 3 days) | pIC50 (BT474; [2]) | pIC50 (HCT-116; 3 days)
8 | 4.71 | 5.84 | 6.06 | O=C1NC(=O)c2ccc(I)cc2/C1=C/Nc1ccc(N2CCN(Cc3ccoc3)CC2)cc1 [Example 390, (4Z)-4-[({4-[4-(3-Furylmethyl)piperazin-1-yl]phenyl}amino)methylene]-6-iodoisoquinoline-1,3(2H,4H)-dione] | – | – | – | – | 4.66 | < 4.30 | < 4.30 | 4.77
9 | 4.48 | < 4.30 | 6.16 | O=C1NC(=O)c2ccc(I)cc2/C1=C/Nc1ccc(N2CCN(C3CCC3)CC2)cc1 [Example 392, (4Z)-4-({[4-(4-Cyclobutylpiperazin-1-yl)phenyl]amino}methylene)-6-iodoisoquinoline-1,3(2H,4H)-dione] | – | – | – | – | 5.38 | 5.32 | 5.42 | 5.60
10 | < 4.30 | < 4.30 | 6.33 | CCN1CCN(c2ccc(N/C=C3\C(=O)NC(=O)c4ccc(I)cc43)cc2)CC1 [Example 393, (4Z)-4-({[4-(4-Ethylpiperazin-1-yl)phenyl]amino}methylene)-6-iodoisoquinoline-1,3(2H,4H)-dione] | – | – | – | – | 5.57 | 5.17 | 5.23 | 5.55
11 | < 4.30 | < 4.30 | 7.70 | CN1CCN(c2ccc(N/C=C3\C(=O)NC(=O)c4ccc(-c5ccsc5)cc43)cn2)CC1 [Example 396, (4Z)-4-({[6-(4-Methylpiperazin-1-yl)pyridin-3-yl]amino}methylene)-6-thien-3-ylisoquinoline-1,3(2H,4H)-dione] | – | – | – | – | 5.42 | 5.51 | 5.55 | 5.85
12 | < 4.30 | 4.67 | 6.74 | CC(CO)N1CCN(c2ccc(N/C=C3\C(=O)NC(=O)c4ccc(I)cc43)cc2)CC1 (stereo not shown) [Example 398, (4Z)-4-[({4-[4-(2-Hydroxy-1-methylethyl)piperazin-1-yl]phenyl}amino)methylene]-6-iodoisoquinoline-1,3(2H,4H)-dione] | – | – | – | – | 5.36 | 5.20 | 5.21 | 5.64
13 | < 4.30 | < 4.30 | 6.47 | COCC(C)N1CCN(c2ccc(N/C=C3\C(=O)NC(=O)c4ccc(I)cc43)cc2)CC1 (stereo not shown) [Example 399, (4Z)-6-Iodo-4-[({4-[4-(2-methoxy-1-methylethyl)piperazin-1-yl]phenyl}amino)methylene]isoquinoline-1,3(2H,4H)-dione] | – | – | – | – | 5.27 | 5.15 | 5.12 | 5.52
14 | < 4.30 | < 4.30 | 6.47 | CC(CN(C)C)N1CCN(c2ccc(N/C=C3\C(=O)NC(=O)c4ccc(I)cc43)cc2)CC1 (stereo not shown) [Example 400, (4Z)-4-{[(4-{4-[2-(Dimethylamino)-1-methylethyl]piperazin-1-yl}phenyl)amino]methylene}-6-iodoisoquinoline-1,3(2H,4H)-dione] | – | – | – | – | 5.06 | 5.07 | 5.03 | 5.54
15 | < 4.30 | < 4.30 | 5.54 | CN(C)C/C=C/C(=O)N1CCCC1c1ccc(N/C=C2\C(=O)NC(=O)c3ccc(I)cc32)cc1 (stereo not shown) [Example 402, 4-({4-[1-(4-Dimethylamino-but-2-enoyl)-pyrrolidin-2-yl]-phenylamino}-methylene)-6-iodo-4H-isoquinoline-1,3-dione] | – | – | – | – | 5.12 | 5.22 | 5.15 | 5.40
16 | 4.84 | 4.60 | 7.00 | O=C1NC(=O)c2ccc(-c3ccsc3)cc2/C1=C/Nc1ccc(C2CC=CCN2)cc1 (stereo not shown) [Example 404, 4-{[4-(1,2,3,6-Tetrahydro-pyridin-2-yl)-phenylamino]-methylene}-6-thiophen-3-yl-4H-isoquinoline-1,3-dione] | – | – | – | – | 5.14 | 5.51 | 5.51 | 5.80
